What was measured:
DC2.4 cells = test: MHC class I cross presentation of OVA257-264 in DC2.4 cells; type: cell-based, murine; settings: 6 h incubation, 5 μM, 25-D1.16 antibody, flow cytometry, with or without SiO2—PO3H2
Procedure: After an incubation time of 6 h, the test substances were removed by washing with phosphate-buffered saline (PBS). In the next step, the cells were incubated with CD16/CD32 antibody in order to block the non-specific binding of the detection antibody to the Fc (Fragment, crystallizable) receptor of the cells. After incubation with 25-D1.16 antibody, the amount of cross-presented OVA257-264 was quantified by flow cytometry. FIG. 16: […] Quantification was carried out by flow cytometry after labeling with 25-D1.16 detection antibody.

influenza A virus PR8/34 = type: in vivo, C57BL/6 mice; settings: s.c. 24 hours before intranasal five-fold LD50 influenza A PR8/34
[1] = Poly(I:C) loading capacity of SiO2-Arg nanoparticles (DLS, zeta potential); type: physicochemical; settings: SiO2-Arg loaded with poly(I:C) LMW, 0.9% NaCl

Substance	OVA257-264 MHC class I presentation (DC2.4 cells)	improvement compared to the placebo group (influenza A virus PR8/34)	PDI [1]	Peak [1] [nm]	Z ave [1] [nm]
SIINFEKL (Ovalbumin aa 258-265; listed as Gallus gallus) [OVA257-264]	presented in significant amounts	–	–	–	–
polyinosinic:polycytidylic acid [poly(I:C)]	–	does not show any statistically significant improvement	0.557	12.69	33.83

Reference: US20230272014A1, “COMPOSITION OF NANOPARTICLES AS CARRIER FOR HPV-DERIVED IMMUNOGENIC FRAGMENTS” (priority 2020, published 2023)
